Experimental data from patent US20080027094A1, “Tropane Compounds and Pharmaceutical Compositions Comprising the Same as an Active Ingredient” (Ono Pharmaceutical Co., Ltd., priority 2004, published 2008).

Columns and labels:
[1] = test system: metacholine-induced bladder constriction; test: Effects on the bladder constriction in guinea pigs; assay type: in vivo; conditions: Hartley male guinea pigs, intratracheal application, metacholine 10 μg/kg i.v.; maximum dose suppressing less than 20% at all points within 60 min
Method: The present experiment was carried out with Hartley male guinea pigs (supplied by Nippon SLC Co.) as divided into groups each consisting of 3 to 4 animals. The guinea pigs were anesthetized with a urethane ([…], given subcutaneously), and were subjected individually to insertion of a catheter into the carotid vein in order to apply metacholine. […] All the ureters were ligated in order to prevent the urine from flowing into the bladder from the kidney. The internal pressure of the bladder was measured by means of a pressure transducer, whereby the bladder was filled with physiological saline to such an extent as might exert lower pressure than the urination threshold pressure against the inner wall. […] Prior to application of the test substance, and from 5 to 60 min. thereafter, respectively, metacholine was applied intravenously (10 μg/kg) to induce the bladder constriction, and the internal pressure of the bladder was measured in a time-course manner. The bladder-constriction ratio was taken as the proportion of the internal pressure of the bladder measured after application of the test substance to the internal pressure of the bladder before application of the test substance. […]

[2] = test system: metacholine-induced airway-constriction; test: Effect on the airways constriction in guinea pigs (Konzett-Rossler method); assay type: in vivo; conditions: Hartley male guinea pigs, intratracheal application, metacholine 10 μg/kg i.v.; minimum dose suppressing not less than 80% within 60 min
Method: The present experiment was carried out with Hartley male guinea pigs (supplied by Nippon SLC Co.) as divided into groups each consisting of 3 to 4 animals. The guinea pigs were anesthetized with pentobarbital sodium (60 mg/kg, given intraperitoneally), and were subjected individually to insertion of a cannula into the airways. Each airway cannula was connected with a volume-controlled respirator (Model SN-480-N, manufactured by Shinano Seisakusho Co.) to perform artificial respiration at a ventilation volume of 5 mL and at a ventilation rate of ca. 70/min. For the purpose of application of metacholine, a catheter was inserted into the carotid vein. […] Prior to application of the test substance, and from 5 to 60 min. thereafter, respectively, metacholine was applied intravenously (10 μg/kg) to induce the airway-constriction, and the pressure at which air was passed through the airways, or the air-passage pressure through the airways, was measured with use of the Konzett-Rossler method. The airways-constriction ratio was taken as a proportion, expressed in percentage, of the air-passage pressure through the airways measured after individual application of the test substance to the maximum air-passage pressure through the airways found when the airways were completely clogged and occluded. […]

| SMILES | no-effective dose for the bladder constriction [1] | effective dose for the airway-constriction suppression [2] |
| --- | --- | --- |
| CCOC(=O)COc1cccc(C[N@+]2(C)[C@@H]3CC[C@H]2C[C@@H](OC(=O)C(O)(c2cccs2)c2cccs2)C3)c1.[Br-] [Example 14 (4), (1R,3r,5S,8s)-8-[3-(2-Ethoxy-2-oxoethoxy)benzyl]-3-({hydroxy[di(2-thienyl)]acetyl}oxy)-8-methyl-8-azoniabicyclo[3.2.1]octane bromide] | 30 µg/kg | 3 µg/kg |
| C[N+]1(C)[C@@H]2C[C@@H](OC(=O)C(O)(c3cccs3)c3cccs3)C[C@H]1[C@@H]1O[C@@H]12 [tiotropium] | 1 µg/kg | 10 µg/kg |
